Consider one compound from paper PMC9747717, “A novel small molecule inhibitor of human Drp1” (Scientific Reports, 2022).

Each structure is given as a SMILES string. Several values for one entry are separate records, joined by “and”; a condition that tells them apart may be missing. Equal values may be shown once.

Data set [1] addresses T1, human Drp1 isoform 3 (Homo sapiens, UniProt O00429).
T1 construct: His tag; made in house; host or cells: E. coli Rosetta (DE3), pET21b vector
Kind of data set: Microscale thermophoresis (MST) binding. Particulars: human Drp1 isoform 3, 5% DMSO. As for the experimental part:
The recombinant human Drp1 protein (His-tagged human Drp1 isoform 3, kindly provided by Professor Michael Ryan, Monash University, Australia) was generated as described previously. Briefly, cDNA for human Drp1 (isoform 3) was cloned into pET21b vector and transformed in Rosetta (DE3) competent cells (Novagen, MA, Merck Millipore). Transformed cells were propagated in Luria–Bertani broth and protein expression was initiated by the addition of 0.5 mM isopropyl β-D-1-thiogalactopyranoside. Cells were harvested by centrifugation at 3,500 g for 20 min at 4 °C, and the pellet was re-suspended in lysis buffer containing 50 mM Tris HCl (pH 7.3), 500 mM NaCl, 50 mM imidazole, 2.5 mM β-mercaptoethanol, 0.01 mM LEUPEP, 0.1 mM AEBSF and 1 mM benzaminidium chloride. The cells were lysed using a pre-cooled EmulsiFlex-C5 homogenizer (Avestin, Ontario, Canada) on ice and clarified by centrifugation at 17,000 g for 30 min. The clarified cell lysate was loaded onto a 5 mL Nickel Chelating Sepharose Fast Flow column (GE Healthcare, Buckinghamshire, UK) and Drp1 protein was eluted with wash buffer containing 50 mM Tris–HCl (pH 7.6), 150 mM NaCl, 2.5 mM β-mercaptoethanol and 400 mM imidazole. […]
Compound binding was assessed in against the human Drp1 isoform-3 protein using MST Monolith NT.115 instrument (NanoTemper Technologies, Mȕnchen, Germany). […]
(Microscale thermophoresis detects binding through changes in fluorescence in a small temperature gradient.)

The nature of data set [2]: Dynamic light scattering (DLS) compound aggregation threshold. Type of data set: physicochemical. As for the experimental part:
Identification of compound aggregation threshold was performed using DLS Zetasizer Nano ZS (Malvern Pananalytical, Worcestershire, UK). 100 µL of samples were measured in low-volume plastic micro cuvettes (BrandTech Scientific, CT, USA) at 25 °C using default size measurement settings. […] Mdivi-1 and DRP1i27 were serially diluted three-fold from 500 µM until the volume distribution of particle size was similar to that of the DMSO control. To specifically determine aggregation threshold, further dilution was carried out between concentrations where aggregation was first observed.

The test system of data set [3] is HL-1 cells. The experiment in a line: Simulated ischaemia-reperfusion injury, cell death. Type of data set: cell-based, Murine. As to conditions: 50 µM during simulated ischaemia-reperfusion; DMSO 29.55 ± 5.45%. As for the experimental part:
HL-1 cells were plated in 24-well plate pre-coated with 5 μg/mL human fibronectin (Merck Millipore, MA, USA) in 0.02% porcine gelatin solution (Sigma-Aldrich, MA, USA). Cells were maintained in Claycomb media (Sigma-Aldrich) supplemented with 0.1 mM (±)-norepinephrine (+)-bitartrate salt (Sigma-Aldrich), 2 mM GlutaMAX (Thermo Fisher Scientific, MA, USA), 100 μg/mL penicillin/streptomycin (Thermo Fisher Scientific) and 10% non-heat inactivated foetal bovine serum (FBS) (Bovogen Biologicals, Victoria, Australia). The simulated ischaemia–reperfusion injury was performed as described in Rosdah et al.[25]. To simulate ischaemia, cells were cultured in ischaemic buffer (25 mM NaHEPES, 1 mM KH2PO4, 10 mM NaHCO3, 74 mM NaCl, 1.2 mM MgCl2.6H2O, 16 mM KCl, 1.2 mM CaCl2, 10 mM 2-deoxy-d-glucose) and hypoxia (< 0.1% O2) was induced in an airtight GENBox anaerobic chamber containing a Genbox Anaer generator sachet (BioMérieux, Marcy l’Etoile, France) at 37 °C. […] Cell death was determined by staining with 1 μg/mL propidium iodide and 3 μg/mL Hoechst 33258. The number of dead cells (propidium iodide positive) was counted and expressed as a percentage over total number of cells (Hoechst 33258 positive). At least 100 cells were counted per group for each independent experiment.

For data set [4], the system named is Human foreskin fibroblasts (HFF-1). The experiment in a line: Hydrogen peroxide-induced oxidative stress, cell death. Particulars: 50 µM compound, 3 mM hydrogen peroxide, compared to DMSO control. The format is cell-based. As for the experimental part:
Human foreskin fibroblasts (HFF-1, ATCC, VA, USA) were treated with 3 mM hydrogen peroxide plus vehicle control (0.1% DMSO), Mdivi-1 (50 µM) or individual compound at 50 µM. After 2.5–3 h of incubation at 37 °C in a humidified 5% CO2 incubator, cells were stained with 1 μg/mL propidium iodide and 3 μg/mL Hoechst 33258 to determine the percentage of dead cells. Images were captured at 20 × objective with an inverted microscope (Olympus IX71). The number of dead cells (propodium iodide positive) was counted and expressed as a percentage over total number of cells (Hoechst 33258 positive). At least 100 cells were counted per group for each independent experiment.

Data set [5] concerns Human foreskin fibroblasts. The experiment in a line: Mitochondrial morphology analysis in human fibroblasts. The format is cell-based. As for the experimental part:
Human foreskin fibroblasts and Drp1 wildtype and KO MEF (kindly provided by Professor Hiromi Sesaki, Johns Hopkins University, USA)[28],[29] were transduced with pAS2.EYFP.puro lentiviruses (RNAiCore, Academia Sinica, Taiwan) carrying the mitochondrial-targeted EGFP sequence as described in Kalkhoran et al.[30]. Cells were then treated with DRP1i27 (5, 10 or 50 µM) or 0.1% DMSO vehicle control for 24 h.
Mitochondrial morphology in HL-1 cells were visualised by immunostaining of mitochondrial Hsp60 antibody (Abcam, MA, USA). Images were acquired using Olympus BX60 fluorescence microscope at 600 × magnification and analysed using Fiji imaging software (ImageJ v1.53c). Cells were categorised into predominantly (> 50%) having fused or fragmented mitochondria. At least 100 cells were analysed for each treatment group.

T1 sequence (O00429 1-699 isoform O00429-4): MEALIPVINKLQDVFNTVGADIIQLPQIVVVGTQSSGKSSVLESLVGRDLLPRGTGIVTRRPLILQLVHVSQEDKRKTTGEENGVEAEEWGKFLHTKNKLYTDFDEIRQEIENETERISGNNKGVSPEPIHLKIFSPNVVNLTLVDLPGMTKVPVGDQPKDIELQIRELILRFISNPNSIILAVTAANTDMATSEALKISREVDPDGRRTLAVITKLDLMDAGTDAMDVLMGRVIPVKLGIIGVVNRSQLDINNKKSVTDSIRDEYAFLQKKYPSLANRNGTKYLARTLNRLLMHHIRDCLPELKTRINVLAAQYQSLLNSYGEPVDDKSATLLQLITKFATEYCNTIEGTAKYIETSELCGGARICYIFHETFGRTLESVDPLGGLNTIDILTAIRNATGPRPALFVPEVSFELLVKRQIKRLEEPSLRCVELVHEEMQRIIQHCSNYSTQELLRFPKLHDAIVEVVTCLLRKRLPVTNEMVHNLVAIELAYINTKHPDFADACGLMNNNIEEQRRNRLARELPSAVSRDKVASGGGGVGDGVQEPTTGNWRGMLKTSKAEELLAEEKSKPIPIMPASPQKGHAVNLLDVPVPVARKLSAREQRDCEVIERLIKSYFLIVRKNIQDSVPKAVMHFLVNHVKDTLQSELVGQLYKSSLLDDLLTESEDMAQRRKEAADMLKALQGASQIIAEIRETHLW

What is called Kd is the constant that tells how readily two partners part at equilibrium. Read a high Kd as a looser complex. `Cc1nc[nH]c1CN1C[C@@H]2CC[C@H](C1)N(Cc1ccc(-c3cc[nH]n3)o1)C2` [DRP1i27]: in data set [1], the Kd is 191 µM and 190 µM. Further, the aggregation threshold is recorded as 130 µM in data set [2] (PBS, 2% DMSO); 350 µM in data set [2] (PBS, 5% DMSO); “at least 500 µM” in data set [2] (with 0.05% Tween-20, DMSO content not specified). Further, the cell death in data set [3] is reported as 15.17 ± 3.67%. In addition, in data set [4], the “cell death induced by hydrogen peroxide” value is “significant reduction”. Further, the “percentage of cells with elongated mitochondria” value in data set [5] (basal condition, compared to DMSO control) was “significant increase”. In addition, the “cellular networks of mitochondria” value in data set [5] (human fibroblasts, 5, 10 or 50 µM, 24 h) is listed as “increase cellular networks of mitochondria”.
